The text below walks through data of BindingDB's records for doi:10.1016/s0960-894x(98)00065-1 (University of Arizona, 1999).

SMILES strings stand for the structures.

The term Ki denotes the dissociation constant of the complex between target and ligand, obtained from inhibition or displacement. The low end stands for a stronger hold on the target, the high end for a looser hold on the target.

A short description of the assay: Compound was tested for binding affinity towards Opioid receptor delta 1 in guinea pig brain homogenates using [3H][p-Cl-Phe]-DPDPE as radioligand.
As for `C[C@H](c1ccccc1)[C@H](NC(=O)CNC(=O)[C@@H](C)NC(=O)[C@@H](N)Cc1ccc(O)cc1)C(=O)NNC(=O)[C@@H](NC(=O)CNC(=O)[C@@H](C)NC(=O)[C@@H](N)Cc1ccc(O)cc1)[C@H](C)c1ccccc1` [2-Amino-N-((S)-1-{[((R)-1-{N'-[(R)-2-(2-{(S)-2-[2-amino-3-(4-hydroxy-phenyl)-propionylamino]-propionylamino}-acetylamino)-3-phenyl-butyryl]-hydrazinocarbonyl}-2-phenyl-propylcarbamoyl)-methyl]-carbamoyl}-ethyl)-3-(4-hydroxy-phenyl)-propionamide], the affinity, expressed as Ki, was 110 nM.

`C[C@@H](NC(=O)[C@@H](N)Cc1ccc(O)cc1)C(=O)NCC(=O)N[C@H](C(=O)NNC(=O)[C@@H](NC(=O)CNC(=O)[C@@H](C)NC(=O)[C@@H](N)Cc1ccc(O)cc1)[C@@H](C)c1ccccc1)[C@@H](C)c1ccccc1` [2-Amino-N-((S)-1-{[((S)-1-{N'-[(S)-2-(2-{(S)-2-[2-amino-3-(4-hydroxy-phenyl)-propionylamino]-propionylamino}-acetylamino)-3-phenyl-butyryl]-hydrazinocarbonyl}-2-phenyl-propylcarbamoyl)-methyl]-carbamoyl}-ethyl)-3-(4-hydroxy-phenyl)-propionamide]: the Ki came out at 11 nM.

`C[C@@H](NC(=O)[C@@H](N)Cc1ccc(O)cc1)C(=O)NCC(=O)N[C@@H](Cc1c(F)c(F)c(F)c(F)c1F)C(=O)NNC(=O)[C@H](Cc1c(F)c(F)c(F)c(F)c1F)NC(=O)CNC(=O)[C@@H](C)NC(=O)[C@@H](N)Cc1ccc(O)cc1` [Biphalin Analogue] gave a Ki of 7.8 nM.

As for `C[C@@H](NC(=O)[C@@H](N)Cc1ccc(O)cc1)C(=O)NCC(=O)N[C@@H](Cc1ccc2ccccc2c1)C(=O)NNC(=O)[C@H](Cc1ccc2ccccc2c1)NC(=O)CNC(=O)[C@@H](C)NC(=O)[C@@H](N)Cc1ccc(O)cc1` [Biphalin Analogue], the Ki was 7.4 nM. The Ki values of the last two compounds are within 1.5-fold of each other.

In the case of `C[C@@H](NC(=O)[C@@H](N)Cc1ccc(O)cc1)C(=O)NCC(=O)N[C@@H](Cc1cccc2ccccc12)C(=O)NNC(=O)[C@H](Cc1cccc2ccccc12)NC(=O)CNC(=O)[C@@H](C)NC(=O)[C@@H](N)Cc1ccc(O)cc1` [Biphalin Analogue], the Ki is 6.4 nM. The Ki values of the last two compounds are within 1.5-fold of each other.
